The NIST ThermoML archive (doi:10.1021/je8006138)
Numbers after ± are expanded uncertainties.

Columns and labels:
[1] = xn = mol fraction of the nth substance listed; settings: 101 kPa, Liquid; for viscosity: Capillary tube (Ostwald / Ubbelohde) method; for mass density: Pycnometric method
[2] = 101 kPa, Liquid; for viscosity: Capillary tube (Ostwald / Ubbelohde) method; for mass density: Pycnometric method

CCCCCC [hexane] + CCCCC(CC)COP(=O)(OCC(CC)CCCC)OCC(CC)CCCC
[1], x2 = 0
Settings | mass density [kg/m3] | viscosity [mPa·s]
293.15 K | 659.9 ± 0.2 | 0.319 ± 0.006
298.15 K | 655.3 ± 0.2 | 0.304 ± 0.006
303.15 K | 650.8 ± 0.2 | 0.29 ± 0.006

C1CCCCC1 [cyclohexane] + CCCCC(CC)COP(=O)(OCC(CC)CCCC)OCC(CC)CCCC
[1], x2 = 0
Settings | mass density [kg/m3] | viscosity [mPa·s]
293.15 K | 778.6 ± 0.3 | 0.984 ± 0.009
298.15 K | 773.9 ± 0.3 | 0.903 ± 0.008
303.15 K | 769.2 ± 0.3 | 0.83 ± 0.008

CCCCC(CC)COP(=O)(OCC(CC)CCCC)OCC(CC)CCCC (stereo not given) [tris(2-ethylhexyl) phosphate] + C1CCCCC1
[1]
Settings | mass density, 293.15 K [kg/m3] | mass density, 298.15 K [kg/m3] | mass density, 303.15 K [kg/m3] | viscosity, 293.15 K [mPa·s] | viscosity, 298.15 K [mPa·s] | viscosity, 303.15 K [mPa·s]
x1 = 0.0997 | 823.7 ± 0.3 | 819.4 ± 0.3 | 815.1 ± 0.3 | 1.709 ± 0.012 | 1.544 ± 0.011 | 1.404 ± 0.011
x1 = 0.1995 | 852.5 ± 0.3 | 848.3 ± 0.3 | 844.2 ± 0.3 | 2.71 ± 0.017 | 2.423 ± 0.016 | 2.176 ± 0.015
x1 = 0.2978 | 871.1 ± 0.3 | 867.1 ± 0.3 | 863.1 ± 0.3 | 3.894 ± 0.025 | 3.415 ± 0.022 | 3.025 ± 0.02
x1 = 0.4007 | 885.8 ± 0.3 | 881.8 ± 0.3 | 877.9 ± 0.3 | 5.246 ± 0.034 | 4.532 ± 0.03 | 3.948 ± 0.026
x1 = 0.4965 | 895.8 ± 0.3 | 892 ± 0.3 | 888 ± 0.4 | 6.629 ± 0.042 | 5.665 ± 0.037 | 4.896 ± 0.032
x1 = 0.582 | 902.8 ± 0.3 | 899 ± 0.4 | 895.1 ± 0.4 | 7.908 ± 0.05 | 6.682 ± 0.043 | 5.732 ± 0.038
x1 = 0.6955 | 910.4 ± 0.4 | 906.6 ± 0.4 | 902.8 ± 0.4 | 9.64 ± 0.061 | 8.09 ± 0.052 | 6.862 ± 0.045
x1 = 0.7732 | 914.6 ± 0.4 | 910.8 ± 0.4 | 907 ± 0.4 | 10.8 ± 0.069 | 9.002 ± 0.059 | 7.619 ± 0.051
x1 = 0.8997 | 920.2 ± 0.4 | 916.5 ± 0.4 | 912.6 ± 0.4 | 12.64 ± 0.083 | 10.5 ± 0.07 | 8.806 ± 0.06
x1 = 1 | 923.8 ± 0.4 | 920.1 ± 0.4 | 916.4 ± 0.4 | 14.09 ± 0.095 | 11.62 ± 0.079 | 9.708 ± 0.067

C1CCCCC1 [cyclohexane]
[2]
Settings | mass density [kg/m3] | viscosity [mPa·s]
293.15 K | 778.6 ± 0.3 | 0.984 ± 0.009
298.15 K | 773.9 ± 0.3 | 0.903 ± 0.008
303.15 K | 769.2 ± 0.3 | 0.83 ± 0.008

CCCCC(CC)COP(=O)(OCC(CC)CCCC)OCC(CC)CCCC (stereo not given) [tris(2-ethylhexyl) phosphate]
[2]
Settings | mass density [kg/m3] | viscosity [mPa·s]
293.15 K | 923.8 ± 0.4 | 14.09 ± 0.095
298.15 K | 920.1 ± 0.4 | 11.62 ± 0.079
303.15 K | 916.4 ± 0.4 | 9.708 ± 0.067

CCCCCC [hexane]
[2]
Settings | mass density [kg/m3] | viscosity [mPa·s]
293.15 K | 659.9 ± 0.2 | 0.319 ± 0.006
298.15 K | 655.3 ± 0.2 | 0.304 ± 0.006
303.15 K | 650.8 ± 0.2 | 0.29 ± 0.006

CCCCC(CC)COP(=O)(OCC(CC)CCCC)OCC(CC)CCCC (stereo not given) [tris(2-ethylhexyl) phosphate] + CCCCCC
[1]
Settings | mass density, 293.15 K [kg/m3] | mass density, 298.15 K [kg/m3] | mass density, 303.15 K [kg/m3] | viscosity, 293.15 K [mPa·s] | viscosity, 298.15 K [mPa·s] | viscosity, 303.15 K [mPa·s]
x1 = 0.1027 | 739.4 ± 0.3 | 735.2 ± 0.3 | 730.9 ± 0.3 | 0.638 ± 0.007 | 0.594 ± 0.007 | 0.56 ± 0.007
x1 = 0.1999 | 789.2 ± 0.3 | 785 ± 0.3 | 780.9 ± 0.3 | 1.103 ± 0.009 | 1.019 ± 0.009 | 0.948 ± 0.008
x1 = 0.2976 | 823.2 ± 0.3 | 819 ± 0.3 | 815 ± 0.3 | 1.754 ± 0.012 | 1.608 ± 0.011 | 1.475 ± 0.01
x1 = 0.4047 | 851.5 ± 0.3 | 847.5 ± 0.3 | 843.5 ± 0.3 | 2.753 ± 0.017 | 2.485 ± 0.015 | 2.246 ± 0.014
x1 = 0.5005 | 869.7 ± 0.3 | 865.8 ± 0.3 | 861.9 ± 0.3 | 3.881 ± 0.024 | 3.438 ± 0.021 | 3.053 ± 0.019
x1 = 0.5889 | 883.6 ± 0.3 | 879.6 ± 0.3 | 875.8 ± 0.3 | 5.1 ± 0.032 | 4.479 ± 0.028 | 3.923 ± 0.025
x1 = 0.7133 | 898.9 ± 0.3 | 895.3 ± 0.3 | 891.4 ± 0.4 | 7.34 ± 0.046 | 6.247 ± 0.04 | 5.405 ± 0.035
x1 = 0.8032 | 908.3 ± 0.4 | 904.5 ± 0.4 | 900.8 ± 0.4 | 9.121 ± 0.058 | 7.73 ± 0.05 | 6.583 ± 0.043
x1 = 0.8907 | 916.3 ± 0.4 | 912.6 ± 0.4 | 908.9 ± 0.4 | 11.18 ± 0.072 | 9.353 ± 0.061 | 7.935 ± 0.053
x1 = 1 | 923.8 ± 0.4 | 920.1 ± 0.4 | 916.4 ± 0.4 | 14.09 ± 0.095 | 11.62 ± 0.079 | 9.708 ± 0.067
